By pIC50 is commonly meant the negative decadic logarithm of the IC50, by convention in mol/L. Low values mean a high IC50, high ones a low IC50.

pIC50: −log10 of the molar value.

Holding throughout (type): cell-based
Common to all, as to settings: SRB staining
(The SRB assay estimates cell density from bound dye.)

The subject of test [1] is human lung cancer cell (HCC827, EGFR Exon 19 deletion activating mutation). Description: Proliferation inhibition (SRB) on human lung cancer cell HCC827. From the text:
(§1) The pharmacodynamic action of the compound of the present invention in terms of inhibiting the proliferation of cancer cells may be assayed by conventional methods. […] Inhibition ratio (%)=[(blank control OD−inhibitor OD)/blank control OD]×100%
(§2) Blank control OD: the OD value of the well of normally growed cells without the action of a drug.
(§3) Inhibitor OD: the OD value of the well of cells with the action of the added compounds to be screened.
(§4) The median inhibitory concentration (IC50) value is obtained by the software GraphPad Prism 5.0 by the 4-parameter logistic curve fit calculation. Each experiment is repeated three times, and the average IC50 value for three experiments is used as the final index for the inhibitory ability.
(§5) Cells in the logarithmic phase were inoculated to 96-well culture plates (cell density: 5000/well, cell suspension: 180 μl/well), and cultured at 37° C. under 5% CO2 for 24 hours. After the culturing, the cells adhered to the well walls. Each of compounds was dissolved in DMSO in advance to formulate a […] stock solution. Upon testing, the stock solution was diluted with complete medium to 10 times the target concentration in another 96-cell plate. And then the compound was added at 20 μl/cell in the 96-well plate in which the cells were inoculated, i.e. the target concentration could be reached. The well for each concentration was triplicated, and the blank control was established. Cells continued to be cultured at 37° C. under 5% CO2 for 72 hours. After the termination of culturing, 50 μl pre-cooled (4° C.) 50% trichloroacetic acid, i.e., TCA was added to each of wells (final concentration=10%), and was placed at 4° C. for 1 hour to fix the cells. The resulting matter was washed with purified water for at least 5 times, and dried naturally in air or at 60° C. in an oven. 4 mg/ml Sulforhodamine B (SRB) solution prepared by 1% glacial acetic acid/purified water was added at 100 μl/well to each well so as to stain for 1 hour at room temperature. The supernatant was discarded. The residue was washed with 1% acetic acid for at least 5 times to remove the non-specifically binding, and dried for use. To each well was added 150 μl of 10 mM Tris-HCl solution for dissolving the contents therein.

Test [2] deals with human lung cancer cell (H1975, EGFR L858R/T790M resistant mutation). Description: Proliferation inhibition (SRB) on human lung cancer cell H1975.
Description: as §1, §2, §3, §4, §5

Test [3] concerns human skin cancer cell (A431, wild-type EGFR). Nature of the test: Proliferation inhibition (SRB) on human skin cancer cell A431.
Description: as §1, §2, §3, §4, §5

As to `C=CC(=O)Nc1cc(Nc2nccc(-c3cn(C)c4cc(F)c(F)cc34)n2)c(OC(C)C)nc1N(C)CCN(C)C` [Example 18 compound, N-{2-{[2-(dimethylamino)ethyl](methyl)amino}-6-isopropyloxy-5-{[4-(1-methyl-5,6-difluoro-1H-indol-3-yl)pyrimidin-2-yl]amino}pyridin-3-yl}acrylamide methanesulfonate], the pIC50 in test [1] (72 hours, methanesulfonate) was 8.65; in test [2] (72 hours, methanesulfonate) it was 8.29; in test [3] (72 hours, methanesulfonate) it was 6.47.
For `C=CC(=O)Nc1cc(Nc2ncc(Cl)c(-c3cn(C)c4ncccc34)n2)c(OC(C)C)nc1N(C)CCN(C)C` [Example 19 compound, N-{2-{[2-(dimethylamino)ethyl](methyl)amino}-6-isopropyloxy-5-{[5-chloro-4-(1-methyl-1H-pyrrolo[2,3-b]pyridin-3-yl)pyrimidin-2-yl]amino}pyridin-3-yl}acrylamide], the pIC50 in test [1] (Homo sapiens, HCC827, 72 h) is 8.58; in test [2] (Homo sapiens, NCI-H1975, 72 h), 8.59; in test [3] (Homo sapiens, A-431, 72 h), 6.68.
For `C=CC(=O)Nc1cc(Nc2ncc(Cl)c(-c3cnc4c(ccn4C)c3)n2)c(OC(C)C)nc1N(C)CCN(C)C` [Example 20 compound, N-{2-{[2-(dimethylamino)ethyl](methyl)amino}-6-isopropyloxy-5-{[5-chloro-4-(1-methyl-1H-pyrrolo[2,3-b]pyridin-5-yl)pyrimidin-2-yl]amino}pyridin-3-yl}acrylamide], the pIC50 in test [1] (Homo sapiens, HCC827, 72 h) is 8.05; in test [2] (Homo sapiens, NCI-H1975, 72 h), 7.37; in test [3] (Homo sapiens, A-431, 72 h), 6.10.
In the case of `C=CC(=O)Nc1cc(Nc2ncc(Cl)c(-c3cnn(C)c3)n2)c(OC(C)C)nc1N(C)CCN(C)C` [Example 21 compound, N-{2-{[2-(dimethylamino)ethyl](methyl)amino}-6-isopropyloxy-5-{[5-chloro-4-(1-methyl-1H-pyrazol-4-yl)pyrimidin-2-yl]amino}pyridin-3-yl}acrylamide], the pIC50 in test [1] (Homo sapiens, HCC827, 72 h) is 6.85; in test [2] (Homo sapiens, NCI-H1975, 72 h), 7.73; in test [3] (Homo sapiens, A-431, 72 h), 6.43.
Consider `C=CC(=O)Nc1cc(Nc2ncc(Cl)c(-c3cnc(OC)nc3)n2)c(OC(C)C)nc1N(C)CCN(C)C` [Example 22 compound, N-{2-{[2-(dimethylamino)ethyl](methyl)amino}-6-isopropyloxy-5-{[5-chloro-2′-methoxy-(4,5′-bipyrimidine)-2-yl]amino}pyridin-3-yl}acrylamide], for which the pIC50 is 7.48 in test [1] (Homo sapiens, HCC827, 72 h); 7.42 in test [2] (Homo sapiens, NCI-H1975, 72 h); 5.56 in test [3] (Homo sapiens, A-431, 72 h).
In the case of `C=CC(=O)Nc1cc(Nc2ncc(Cl)c(-c3cnc(N)nc3)n2)c(OC(C)C)nc1N(C)CCN(C)C` [Example 23 compound, N-{2-{[2-(dimethylamino)ethyl](methyl)amino}-6-isopropyloxy-5-{[5-chloro-2′-amino-(4,5′-bipyrimidine)-2-yl]amino}pyridin-3-yl}acrylamide], the pIC50 in test [1] (Homo sapiens, HCC827, 72 h) was 8.51; in test [2] (Homo sapiens, NCI-H1975, 72 h) it was 7.51; in test [3] (Homo sapiens, A-431, 72 h), 5.94.

The record behind these values is patent publication USRE48687E1, “Pyridinylaminopyrimidine derivatives, preparation process and use thereof” (Shanghai Allist Pharmaceuticals Co., Ltd., priority 2014, dated 2021).
